Like-named read-outs stand apart in the source and are kept apart here.
Legend:
TNF-α production [1] = assay: ELISA for TNF-α production by LPS stimulated human monocytes; format: cell-based; conditions: Concentration of compound which inhibited the product of TNFα by 50% of control, read-out: TNFαIC50
Procedure: Peripheral blood mononuclear cells were isolated from normal human blood on Hypaque-Ficoll density gradients. A portion of the isolated cells were further purified by adherence to gelatin coated flasks.
100 μl aliquots of monocytes were placed onto 96 well microtiter plates at a density of 5×10^5 cells/ml in RPMI-1640 medium containing 10% fetal bovine serum. After incubation for 24 hrs., various concentrations of the test compounds (FIG. 5) were added to the plated cells in a volume of 100 μl and incubated for 1 hr. After incubation, 1 μg/ml of LPS was added to each well.
18 hrs. after exposure of the plated cells to LPS, 100 μl of medium was collected from each well and assayed (by ELISA) for release of TNF-α, using recombinant human TNF as a standard. The sensitivity of the assay ranged from 10-100 pg/ml.

TNF-α production [2] = assay: LPS induced TNF-α production by human macrophages; format: cell-based; conditions: 0.1-1000 μM; result in words
Procedure: Human macrophages were cultured in 96 well microtiter plates and incubated with LPS. μAliquots of the stimulated cells were then incubated with, respectively, 0.1, 1, 10, 100 or 1000 μM of 1I-49, compound 37 and a commercially available isoquinoline (6,7-dimethoxy-1(2H)-isoquinoline from μAldrich Chemical; labelled S52-626-6 in FIG. 10) which, like the compounds of the invention, has an oxygen ortho to a ring nitrogen but, unlike the compounds of the invention, lacks a side chain substituent as described above (1L-49 is representative of the isoquinolone compounds of the invention having the side chain substituents described elsewhere above). The inhibitory efficacy of each compound was measured as a function of TNF-α reduction in μg/ml.

Row | melting point | IC50 (TNF-α production [1]; Monocyte) | IC50 (TNF-α production [1]) | SMILES | inhibition of LPS induced TNF-α production (TNF-α production [2])
1 | > 295 °C (dec.) | 50 µM |  | CCCCCCn1c(=O)c2[nH]c(=O)[nH]c2n(C)c1=O [Compound 24, 1-n-Hexyl-3-methyluric Acid] | 
2 | > 320 °C | > 200 µM |  | Cn1c(=O)[nH]c(=O)c2[nH]c(S)nc21 [Compound 25, 3-Methyl-8-thiouric Acid] | 
3 |  |  | 5 µM | CCCn1c(=O)n(CCCC(=O)OCC)c(=O)c2c1ncn2C [Compound 31, ethyl 4-(2,3,6,7-tetrahydro-2,6-dioxo-7-methyl-3-n-propyl-1H-purin-1-yl)butonoic acid] | 
4 |  | 55 µM |  | CCOC(=O)CCCn1c(=O)c2ccccc2n(C)c1=O [Compound 52, Ethyl 1-Methyl-1,4-dihydro-2,4-dioxo-3(2H)-quinazolinebutanoate] | 
5 |  |  |  | COc1cc2cc[nH]c(=O)c2cc1OC [S52, 626-6, 6,7-dimethoxy-1(2H)-isoquinoline] | mild inhibitory activity
